Measured values as given in publication PMC4635624, “In vitro and in vivo single-agent efficacy of checkpoint kinase inhibition in acute lymphoblastic leukemia” (Journal of Hematology & Oncology, 2015).
Entries after “also recorded” stand apart in the source; their conditions may differ.

Key:
[1] = system: mice transplanted with T-ALL (ENU-induced murine leukemia); test: In vivo efficacy in mice transplanted with T-ALL
Description: Leukemic mice were generated by the usage of the tumorigenic agent N-ethyl-N-nitrosourea (ENU). […] Leukemic blasts coming from the spleen of leukemic animals were transplanted into C57BL/6Ly5.1-recipient mice. Three days after transplantation, a time sufficient for leukemic blasts to home the bone marrow of the host, we started to treat the animals.
Experiments involving mice were performed in agreement with Italian guidelines and after the approval of the Institutional Review Board of the European Institute of Oncology. Leukemic mice were generated by a single administration of the tumorigenic agent N-ethyl-N-nitrosourea (Sigma, 50 mg/kg intraperitoneally). Spleen cells from leukemic C57BL6/Ly5.2 mice were injected intravenously (2 × 10^6 cells/mouse) into non-irradiated, recipient C57BL6/Ly5.1 mice. PF-0077736 was administered intraperitoneally starting from day 3 after the transplant of leukemic cells. Mice received doses of PF-0077736 (40 mg/kg each dose) every 3 days for four treatments (q3dx4). Kaplan-Meyer rank test was used to compare the survival rate between treated and control mice.

[2] = system: Chk1 pathway (Chk1-Cdc25-Cdc2) in BV-173 and NALM-6 cells; test: Western blot analysis of Chk1 pathway; assay type: cell-based, human
Description: In order to assess whether PF-00477736 efficiently targeted Chk1 pathway, we examined the changes in the downstream phosphorylation of the phosphatase Cdc25C and cyclin-dependent kinase, Cdc2. Moreover, Chk1 itself and γ-H2A.X, which is a marker of stalling replication forks and checkpoint abrogation-induced apoptosis, have been assessed. Functional analyses were initially performed on the most sensitive (BV-173) and the most resistant (NALM-6) B-ALL cell lines, as determined by the viability and apoptosis analyses. Specifically, BV-173 cells were treated with 0.05, 0.1, and 0.2 μM and NALM-6 with 0.1, 0.5, and 1 μM of PF-00477736 for 24 h (Fig. 3a). In the second analysis, BV-173 and NALM-6 cells were treated with the dose of PF-00477736 that goes near to the IC50 (0.1 μM for BV-173 and 1 μM for NALM-6) for 18, 24, 30, and 48 h (Fig. 3b). Thereafter, the same molecular targets have been assessed on all B- and T-ALL cell lines using the dose that goes near to the IC50 (Additional file 1: Figure S4). Active Chk1 phosphorylates Cdc25C at serine 216 throughout the interphase and upon G2 checkpoint activation. This leads to the nuclear export of Cdc25C and its subsequent cytoplasmic sequestration by 14-3-3 protein, which prevents the activation of the downstream target of Cdc25C, the cyclin B/Cdc2 kinase that is responsible for G2/M transition. […] Although the increment of the phosphorylated forms of Chk1 (Ser317 and Ser345) as a consequence of genomic damage amplification, the complete inhibition of Chk1 functionality was confirmed by the progressive reduction of the auto-phosphorylated form of Chk1 (Ser296) in an early time point analysis.
To gain insight into the molecular mechanisms responsible for cell death following treatment, functional analyses by Western blot were performed. Leukemia cell lines were plated in six-well plates at 500,000 cell/1 ml with increasing concentrations of drug for 24 h and incubated at 37 °C. After the treatment, the cells were collected and lysate using a specific buffer made of KH2PO4 0.1 M (pH 7.5), Igepal 1 % (NP-40), β-glicerofosfato 0.1 mM, and complete protease inhibitor cocktail 1× (Roche Diagnostics). […] Finally, all these antibodies were detected using the enhanced chemiluminescence kit ECL (GE) and the compact darkroom ChemiDoc-It (UVP).

[3] = system: RPMI-8402 (T-ALL) cells; test: Cell viability assay (WST-1); assay type: cell-based, human; conditions: RPMI-8402, 24 h exposure, p53 mutated
Description: (§1) B-/T-ALL cell lines were incubated with increasing concentrations of drug (5–1000 nM) for 24 and 48 h.
(§2) In order to assess the cell viability after treatment with PF-00477736 (Pfizer), ALL cell lines were seeded in 96-well plates at 50,000 cell/100 μl/well with increasing concentrations of drug (0.005–2 μM) for 24 and 48 h and incubated at 37 °C. Cell viability was assessed by adding WST-1 reagent (Roche Applied Science, Basel, Switzerland) to the culture medium at 1:10 dilution. Cells were incubated at 37 °C, and the optical density was measured by microplate ELISA reader at λ = 450 after 3 h. The amount of the formazan formed directly correlates to the number of metabolically active cells. All viability experiments were performed in triplicates and repeated in least two separated experiments. In ex-vivo primary leukemia cells, the effects on cell viability were assessed by counting viable and non-viable cell numbers by the trypan blue dye exclusion method. Cells were seeded in six-well plates at 500,000 cell/1 ml with increasing concentrations of drug (0.1, 0.5, and 1 μM) for 24 h and incubated at 37 °C. Cellular viability was calculated as a percentage of the viable cells compared to the untreated controls (DMSO 0.1 %).

[4] = system: NALM-6 (B-ALL) cells; test: Cell viability assay (WST-1); assay type: cell-based, human; conditions: NALM-6, 24 h exposure, TP53 wild-type
Description: as §1, §2

## Cn1cc(-c2[nH]c3cc(NC(=O)[C@H](N)C4CCCCC4)cc4c3c2C=NNC4=O)cn1 [PF-00477736]
[1]; 40 mg/kg intraperitoneally q3dx4, five treated vs seven control mice, p value =0.0009, listed as PF-0477736
  overall survival vs vehicle: significantly increases the overall survival; also recorded: increases the survival of treated mice
[1]; 40 mg/kg intraperitoneally q3dx4 from day 3 after transplant, five mice, controls (PBS) die all at day 17
  survival of treated animals post transplantation: up to 59 days
[1]; 40 mg/kg, q3dx4 schedule, intraperitoneally
  toxicity for the animals: seems not to be toxic
[2]; BV-173 0.05-0.2 μM, NALM-6 0.1-1 μM, 24 h
  phosphorylated forms of Chk1 (Ser317 and Ser345): dose-dependently increased
[2]; Western blot and immunofluorescence, 18, 24, 30, 48 h at dose near IC50
  γ-H2A.X level: time-dependently increase of γ-H2A.X
[2]; after 3 h of treatment, BV-173 and NALM-6, vs untreated
  auto-phosphorylated form of Chk1 (Ser296): drastically reduced
[2]; dose- and time-dependent, BV-173 0.05-0.2 μM, NALM-6 0.1-1 μM
  phosphorylated Cdc25c (Ser216) and Cdc2 (Tyr 15) levels: decreased levels of phosphorylated Cdc25c (Ser216) and Cdc2 (Tyr 15)
[3]
  IC50: 0.0574 µM
[4]
  IC50: 1.42 µM
